# Non-standard residues stand in square brackets, D forms with d. Residues, ends and D or L forms follow the SMILES beside them.
# System: S. aureus JAR
# Assay type: cell-based
# Conditions: JAR, 2 h
# Procedure: S. aureus JAR is described in Campoccia et al. (Int. J. Artif. Organs, 2008 September; 31(9):841-7).
# For the in vitro killing assay with P10 variants, S. aureus JAR ([…] CFU/ml) were incubated for 2 hours at 37° C. with various concentrations of the peptides in PBS or in PBS/human plasma (1/1, v/v). […] The LC99.9 is the average value of two independent experiments.
Compound,LC99.9 (μM) (50% plasma) [µM],LC99.9 (μM) (PBS) [µM]
"CC[C@@H](C)[C@@H](NC(=O)[C@H](NC(=O)[C@@H](CCC(=O)O)NC(=O)[C@@H](CCCCN)NC(=O)[C@@H](CC(C)C)NC(=O)[C@@H](CCCCN)NC(=O)[C@@H](CCCNC(=N)N)NC(=O)[C@@H](Cc1c[nH]c2ccccc12)NC(=O)[C@@H](CC(C)C)NC(=O)[C@@H](CCCNC(=N)N)NC(=O)[C@@H](CCC(N)=O)NC(=O)[C@H](NC(=O)[C@@H](CC(C)C)NC(=O)[C@@H](CCCNC(=N)N)NC(=O)[C@H](NC(=O)[C@@H](CC(C)C)NC(=O)[C@H](N)CCCNC(=N)N)[C@H](C)O)C(C)C)C(C)C)C(=O)N[C@H](CCCCN)C(=O)N[C@H](CCCCN)C(=O)N[C@H](Cc1ccc(O)cc1)C(=O)N[C@H](CCC(=O)O)C(=O)N[C@H](CCCNC(=N)N)C(=O)N[C@H](C)C(=O)N[C@H](CC(C)C)C(N)=O [Peptide 1241-03, rltrlvqrlwrklkevikkyeralB] (H-[dR][dL][dT][dR][dL][dV][dQ][dR][dL][dW][dR][dK][dL][dK][dE][dV][dI][dK][dK][dY][dE][dR][dA][dL]-NH2)",>102.4,3.2
"CC[C@H](C)[C@H](NC(=O)[C@H](CCCCN)NC(=O)[C@H](CCCCN)NC(=O)[C@H](Cc1ccc(O)cc1)NC(=O)[C@H](CCC(=O)O)NC(=O)[C@H](CCCNC(=N)N)NC(=O)[C@H](C)NC(=O)[C@@H](CC(C)C)NC(C)=O)C(=O)N[C@H](C(=O)N[C@@H](CCC(=O)O)C(=O)N[C@@H](CCCCN)C(=O)N[C@@H](CC(C)C)C(=O)N[C@@H](CCCCN)C(=O)N[C@@H](CCCNC(=N)N)C(=O)N[C@@H](Cc1c[nH]c2ccccc12)C(=O)N[C@@H](CC(C)C)C(=O)N[C@@H](CCCNC(=N)N)C(=O)N[C@@H](CCC(N)=O)C(=O)N[C@H](C(=O)N[C@@H](CC(C)C)C(=O)N[C@@H](CCCNC(=N)N)C(=O)N[C@H](C(=O)N[C@@H](CC(C)C)C(=O)N[C@@H](CCCNC(=N)N)C(N)=O)[C@@H](C)O)C(C)C)C(C)C [Peptide 1301-1, JlAREYKKIVEKLKRWLRQVLRTLRB] (Ac-[dL]AREYKKIVEKLKRWLRQVLRTLR-NH2)",38.4,0.6
"CC[C@H](C)[C@H](NC(=O)[C@H](CCCCN)NC(=O)[C@H](CCCCN)NC(=O)[C@H](Cc1ccc(O)cc1)NC(=O)[C@H](CCC(=O)O)NC(=O)[C@H](CCCNC(=N)N)NC(=O)[C@@H](C)NC(=O)[C@H](CC(C)C)NC(C)=O)C(=O)N[C@H](C(=O)N[C@@H](CCC(=O)O)C(=O)N[C@@H](CCCCN)C(=O)N[C@@H](CC(C)C)C(=O)N[C@@H](CCCCN)C(=O)N[C@@H](CCCNC(=N)N)C(=O)N[C@@H](Cc1c[nH]c2ccccc12)C(=O)N[C@@H](CC(C)C)C(=O)N[C@@H](CCCNC(=N)N)C(=O)N[C@@H](CCC(N)=O)C(=O)N[C@H](C(=O)N[C@@H](CC(C)C)C(=O)N[C@@H](CCCNC(=N)N)C(=O)N[C@H](C(=O)N[C@@H](CC(C)C)C(=O)N[C@@H](CCCNC(=N)N)C(N)=O)[C@@H](C)O)C(C)C)C(C)C [Peptide 1301-2, JLaREYKKIVEKLKRWLRQVLRTLRB] (Ac-L[dA]REYKKIVEKLKRWLRQVLRTLR-NH2)",38.4,0.6
"CC[C@H](C)[C@H](NC(=O)[C@H](CCCCN)NC(=O)[C@H](CCCCN)NC(=O)[C@H](Cc1ccc(O)cc1)NC(=O)[C@H](CCC(=O)O)NC(=O)[C@@H](CCCNC(=N)N)NC(=O)[C@H](C)NC(=O)[C@H](CC(C)C)NC(C)=O)C(=O)N[C@H](C(=O)N[C@@H](CCC(=O)O)C(=O)N[C@@H](CCCCN)C(=O)N[C@@H](CC(C)C)C(=O)N[C@@H](CCCCN)C(=O)N[C@@H](CCCNC(=N)N)C(=O)N[C@@H](Cc1c[nH]c2ccccc12)C(=O)N[C@@H](CC(C)C)C(=O)N[C@@H](CCCNC(=N)N)C(=O)N[C@@H](CCC(N)=O)C(=O)N[C@H](C(=O)N[C@@H](CC(C)C)C(=O)N[C@@H](CCCNC(=N)N)C(=O)N[C@H](C(=O)N[C@@H](CC(C)C)C(=O)N[C@@H](CCCNC(=N)N)C(N)=O)[C@@H](C)O)C(C)C)C(C)C [Peptide 1301-3, JLArEYKKIVEKLKRWLRQVLRTLRB] (Ac-LA[dR]EYKKIVEKLKRWLRQVLRTLR-NH2)",38.4,0.6
"CC[C@H](C)[C@H](NC(=O)[C@H](CCCCN)NC(=O)[C@H](CCCCN)NC(=O)[C@H](Cc1ccc(O)cc1)NC(=O)[C@@H](CCC(=O)O)NC(=O)[C@H](CCCNC(=N)N)NC(=O)[C@H](C)NC(=O)[C@H](CC(C)C)NC(C)=O)C(=O)N[C@H](C(=O)N[C@@H](CCC(=O)O)C(=O)N[C@@H](CCCCN)C(=O)N[C@@H](CC(C)C)C(=O)N[C@@H](CCCCN)C(=O)N[C@@H](CCCNC(=N)N)C(=O)N[C@@H](Cc1c[nH]c2ccccc12)C(=O)N[C@@H](CC(C)C)C(=O)N[C@@H](CCCNC(=N)N)C(=O)N[C@@H](CCC(N)=O)C(=O)N[C@H](C(=O)N[C@@H](CC(C)C)C(=O)N[C@@H](CCCNC(=N)N)C(=O)N[C@H](C(=O)N[C@@H](CC(C)C)C(=O)N[C@@H](CCCNC(=N)N)C(N)=O)[C@@H](C)O)C(C)C)C(C)C [Peptide 1301-4, JLAReYKKIVEKLKRWLRQVLRTLRB] (Ac-LAR[dE]YKKIVEKLKRWLRQVLRTLR-NH2)",38.4,0.6
"CC[C@H](C)[C@H](NC(=O)[C@H](CCCCN)NC(=O)[C@H](CCCCN)NC(=O)[C@@H](Cc1ccc(O)cc1)NC(=O)[C@H](CCC(=O)O)NC(=O)[C@H](CCCNC(=N)N)NC(=O)[C@H](C)NC(=O)[C@H](CC(C)C)NC(C)=O)C(=O)N[C@H](C(=O)N[C@@H](CCC(=O)O)C(=O)N[C@@H](CCCCN)C(=O)N[C@@H](CC(C)C)C(=O)N[C@@H](CCCCN)C(=O)N[C@@H](CCCNC(=N)N)C(=O)N[C@@H](Cc1c[nH]c2ccccc12)C(=O)N[C@@H](CC(C)C)C(=O)N[C@@H](CCCNC(=N)N)C(=O)N[C@@H](CCC(N)=O)C(=O)N[C@H](C(=O)N[C@@H](CC(C)C)C(=O)N[C@@H](CCCNC(=N)N)C(=O)N[C@H](C(=O)N[C@@H](CC(C)C)C(=O)N[C@@H](CCCNC(=N)N)C(N)=O)[C@@H](C)O)C(C)C)C(C)C [Peptide 1301-5, JLAREyKKIVEKLKRWLRQVLRTLRB] (Ac-LARE[dY]KKIVEKLKRWLRQVLRTLR-NH2)",38.4,0.6
"CC[C@H](C)[C@H](NC(=O)[C@H](CCCCN)NC(=O)[C@@H](CCCCN)NC(=O)[C@H](Cc1ccc(O)cc1)NC(=O)[C@H](CCC(=O)O)NC(=O)[C@H](CCCNC(=N)N)NC(=O)[C@H](C)NC(=O)[C@H](CC(C)C)NC(C)=O)C(=O)N[C@H](C(=O)N[C@@H](CCC(=O)O)C(=O)N[C@@H](CCCCN)C(=O)N[C@@H](CC(C)C)C(=O)N[C@@H](CCCCN)C(=O)N[C@@H](CCCNC(=N)N)C(=O)N[C@@H](Cc1c[nH]c2ccccc12)C(=O)N[C@@H](CC(C)C)C(=O)N[C@@H](CCCNC(=N)N)C(=O)N[C@@H](CCC(N)=O)C(=O)N[C@H](C(=O)N[C@@H](CC(C)C)C(=O)N[C@@H](CCCNC(=N)N)C(=O)N[C@H](C(=O)N[C@@H](CC(C)C)C(=O)N[C@@H](CCCNC(=N)N)C(N)=O)[C@@H](C)O)C(C)C)C(C)C [Peptide 1301-6, JLAREYkKIVEKLKRWLRQVLRTLRB] (Ac-LAREY[dK]KIVEKLKRWLRQVLRTLR-NH2)",38.4,0.6
"CC[C@H](C)[C@H](NC(=O)[C@@H](CCCCN)NC(=O)[C@H](CCCCN)NC(=O)[C@H](Cc1ccc(O)cc1)NC(=O)[C@H](CCC(=O)O)NC(=O)[C@H](CCCNC(=N)N)NC(=O)[C@H](C)NC(=O)[C@H](CC(C)C)NC(C)=O)C(=O)N[C@H](C(=O)N[C@@H](CCC(=O)O)C(=O)N[C@@H](CCCCN)C(=O)N[C@@H](CC(C)C)C(=O)N[C@@H](CCCCN)C(=O)N[C@@H](CCCNC(=N)N)C(=O)N[C@@H](Cc1c[nH]c2ccccc12)C(=O)N[C@@H](CC(C)C)C(=O)N[C@@H](CCCNC(=N)N)C(=O)N[C@@H](CCC(N)=O)C(=O)N[C@H](C(=O)N[C@@H](CC(C)C)C(=O)N[C@@H](CCCNC(=N)N)C(=O)N[C@H](C(=O)N[C@@H](CC(C)C)C(=O)N[C@@H](CCCNC(=N)N)C(N)=O)[C@@H](C)O)C(C)C)C(C)C [Peptide 1301-7, JLAREYKkIVEKLKRWLRQVLRTLRB] (Ac-LAREYK[dK]IVEKLKRWLRQVLRTLR-NH2)",25.6,0.6
"CC[C@@H](C)[C@@H](NC(=O)[C@H](CCCCN)NC(=O)[C@H](CCCCN)NC(=O)[C@H](Cc1ccc(O)cc1)NC(=O)[C@H](CCC(=O)O)NC(=O)[C@H](CCCNC(=N)N)NC(=O)[C@H](C)NC(=O)[C@H](CC(C)C)NC(C)=O)C(=O)N[C@H](C(=O)N[C@@H](CCC(=O)O)C(=O)N[C@@H](CCCCN)C(=O)N[C@@H](CC(C)C)C(=O)N[C@@H](CCCCN)C(=O)N[C@@H](CCCNC(=N)N)C(=O)N[C@@H](Cc1c[nH]c2ccccc12)C(=O)N[C@@H](CC(C)C)C(=O)N[C@@H](CCCNC(=N)N)C(=O)N[C@@H](CCC(N)=O)C(=O)N[C@H](C(=O)N[C@@H](CC(C)C)C(=O)N[C@@H](CCCNC(=N)N)C(=O)N[C@H](C(=O)N[C@@H](CC(C)C)C(=O)N[C@@H](CCCNC(=N)N)C(N)=O)[C@@H](C)O)C(C)C)C(C)C [Peptide 1301-8, JLAREYKKiVEKLKRWLRQVLRTLRB] (Ac-LAREYKK[dI]VEKLKRWLRQVLRTLR-NH2)",38.4,0.6
"CC[C@H](C)[C@H](NC(=O)[C@H](CCCCN)NC(=O)[C@H](CCCCN)NC(=O)[C@H](Cc1ccc(O)cc1)NC(=O)[C@H](CCC(=O)O)NC(=O)[C@H](CCCNC(=N)N)NC(=O)[C@H](C)NC(=O)[C@H](CC(C)C)NC(C)=O)C(=O)N[C@@H](C(=O)N[C@@H](CCC(=O)O)C(=O)N[C@@H](CCCCN)C(=O)N[C@@H](CC(C)C)C(=O)N[C@@H](CCCCN)C(=O)N[C@@H](CCCNC(=N)N)C(=O)N[C@@H](Cc1c[nH]c2ccccc12)C(=O)N[C@@H](CC(C)C)C(=O)N[C@@H](CCCNC(=N)N)C(=O)N[C@@H](CCC(N)=O)C(=O)N[C@H](C(=O)N[C@@H](CC(C)C)C(=O)N[C@@H](CCCNC(=N)N)C(=O)N[C@H](C(=O)N[C@@H](CC(C)C)C(=O)N[C@@H](CCCNC(=N)N)C(N)=O)[C@@H](C)O)C(C)C)C(C)C [Peptide 1301-9, JLAREYKKIvEKLKRWLRQVLRTLRB] (Ac-LAREYKKI[dV]EKLKRWLRQVLRTLR-NH2)",38.4,0.6

# Same assay, conditions: statements referring to Tables 2-6
row,Compound,"antimicrobial activity, in words"
1,"CC[C@@H](C)[C@@H](NC(=O)[C@H](NC(=O)[C@@H](CCC(=O)O)NC(=O)[C@@H](CCCCN)NC(=O)[C@@H](CC(C)C)NC(=O)[C@@H](CCCCN)NC(=O)[C@@H](CCCNC(=N)N)NC(=O)[C@@H](Cc1c[nH]c2ccccc12)NC(=O)[C@@H](CC(C)C)NC(=O)[C@@H](CCCNC(=N)N)NC(=O)[C@@H](CCC(N)=O)NC(=O)[C@H](NC(=O)[C@@H](CC(C)C)NC(=O)[C@@H](CCCNC(=N)N)NC(=O)[C@H](NC(=O)[C@@H](CC(C)C)NC(=O)[C@H](N)CCCNC(=N)N)[C@H](C)O)C(C)C)C(C)C)C(=O)N[C@H](CCCCN)C(=O)N[C@H](CCCCN)C(=O)N[C@H](Cc1ccc(O)cc1)C(=O)N[C@H](CCC(=O)O)C(=O)N[C@H](CCCNC(=N)N)C(=O)N[C@H](C)C(=O)N[C@H](CC(C)C)C(N)=O [Peptide 1241-03, rltrlvqrlwrklkevikkyeralB] (H-[dR][dL][dT][dR][dL][dV][dQ][dR][dL][dW][dR][dK][dL][dK][dE][dV][dI][dK][dK][dY][dE][dR][dA][dL]-NH2)",possesses antimicrobial activity

# Source: US9562085B2, “Antimicrobial peptide” (priority 2013, dated 2017)
